Measured values as given in patent US10487329B2, “Methods and compositions for the treatment of head and neck cancer” (Children's Hospital Medical Center, priority 2015, dated 2019).

What was measured:
melanoma cells = settings: in vitro and in vivo, references [20, 24]; cited from earlier work
IRAK1 and IRAK4 = settings: reference [24]; cited from earlier work
MDS = settings: references [20, 24]; cited from earlier work
UMSCC1 cells = test: Flow cytometry for cleaved caspase-3 (apoptosis), UMSCC1; format: cell-based, human; settings: UMSCC1, inhibitor vs DMSO, 72 hours, p<0.05
Description: Flow cytometry for Cleaved Caspase-3. Lentivirally transduced cells were plated at equal densities and collected 48 hours later. Cells were fixed and prepped following the BD FITC Active Caspase-3 Apoptosis kit protocol (BD Biosciences). Adenovirally transduced cells were prepped with an Alexa-Fluor 647 conjugated cleaved-caspase 3 antibody to account for GFP-positivity (Cell Signaling Technologies (9602)). Analysis was performed on a BD FacsCanto and data analyzed on FlowJo software (Tree Star, Ashland, Oreg., USA). Experiments were performed 3 times with standard error of the mean (SEM) represented.
IRAK1 inhibitor. UMSCC1 cells were plated at equal densities and IRAK1 inhibitor (IRAK-1/4 inhibitor, 15409, Sigma-Aldrich, St. Louis, Mo., USA) added the same day for caspase-3 flow cytometry experiments. DMSO was added in equal volume for a control.
(§1) Cells and media were collected 72 hours later and prepared and analyzed as above. For the time-course experiment, cells were plated and inhibitor was added the following day, with protein collected at 24, 48, and 72 hours and analyzed by western blot for IRAK1 inhibition.

IRAK1 = biological target: T1, IRAK1 (Homo sapiens, UniProt P51617); test: Western blot for IRAK1 activation (phospho-IRAK1 Thr209) in HNSCC cell lines; format: cell-based; settings: 10 μM, 24-72 hours post-treatment, UMSCC1 and UMSCC47 cells
T1 construct: endogenous in cells; host or cells: UMSCC1 and UMSCC47 cells
Description: Western blotting. Whole cell lysates were harvested using Laemmli buffer and a total of 20 μg of protein was analyzed as described previously. Membranes were probed with DEK (1:1000, BD Biosciences, San Jose, Calif., USA), IRAK1 (1:1000, Santa Cruz Biotechnology, Dallas, Tex., USA (sc-7883)), TRAF6 (1:1000, Santa Cruz (sc-7221)), phospho-IRAK1 (Thr209, 1:800, Assay Biotechnology Company (A1074), Sunnyvale, Calif., USA), phospho-p38 (1:500, Cell Signaling Technologies (4361)), p38 (1:1000, Cell Signaling Technologies (9212)), phospho-ERK1/2 (1:1000, Cell Signaling Technologies (4377)), ERK1/2 (1:1000, Cell Signaling Technologies (4695)), phospho-IKKa/r3 (1:500, Cell Signaling Technologies (2697)), IKKa (1:1000, Cell Signaling Technologies (2682)), phospho-hcBa (1:500, Cell Signaling Technologies (9246)), hcBa (1:1000, Cell Signaling Technologies (4812)), a-tubulin-HRP (1:10,000 Cell Signaling Technologies (9099)), actin (1:10,000 a gift from James Lessard), and GAPDH (1:1000, Cell Signaling Technologies (5174)).
IRAK1 inhibitor. […]
as §1

T1 sequence (P51617 whole entry): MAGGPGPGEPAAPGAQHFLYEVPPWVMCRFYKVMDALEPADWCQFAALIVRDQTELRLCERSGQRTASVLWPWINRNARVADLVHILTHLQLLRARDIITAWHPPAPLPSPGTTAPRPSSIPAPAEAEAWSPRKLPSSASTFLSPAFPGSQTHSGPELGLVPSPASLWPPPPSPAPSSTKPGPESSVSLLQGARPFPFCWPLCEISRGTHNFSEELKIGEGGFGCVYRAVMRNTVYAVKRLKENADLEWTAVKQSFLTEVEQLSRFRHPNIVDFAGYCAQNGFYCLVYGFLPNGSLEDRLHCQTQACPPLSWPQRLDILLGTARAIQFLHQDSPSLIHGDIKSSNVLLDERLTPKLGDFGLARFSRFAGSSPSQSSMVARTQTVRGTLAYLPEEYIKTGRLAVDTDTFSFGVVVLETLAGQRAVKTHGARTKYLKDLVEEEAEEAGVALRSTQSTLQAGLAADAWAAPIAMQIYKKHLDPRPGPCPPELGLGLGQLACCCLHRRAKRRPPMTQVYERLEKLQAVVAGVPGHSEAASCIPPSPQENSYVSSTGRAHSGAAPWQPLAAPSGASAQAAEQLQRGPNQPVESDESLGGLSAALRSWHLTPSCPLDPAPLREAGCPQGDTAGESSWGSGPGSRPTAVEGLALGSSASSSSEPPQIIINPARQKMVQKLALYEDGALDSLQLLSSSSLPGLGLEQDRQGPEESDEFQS

## O=C(Nc1nc2ccccc2n1CCN1CCOCC1)c1cccc([N+](=O)[O-])c1 [IRAK-1/4 inhibitor, N-(2-morpholinylethyl)-2-(3-nitrobenzoylamido)-benzimidazole]
Melanoma cells
  apoptosis in melanoma cells: increase apoptosis
IRAK1 and IRAK4
  kinase selectivity: selective for IRAK1 and IRAK4
MDS
  signaling and cell viability in MDS: inhibit signaling and cell viability
UMSCC1 cells
  apoptosis (cleaved caspase-3): Significantly increased apoptosis
IRAK1
  activation of IRAK1 (phosphorylation of IRAK1): attenuated activation of IRAK1
